# Data from patent publication US20100173025A1, “FAT ABSORPTION INHIBITORY COMPOSITION” (NISSHIN PHARMA INC., priority 2007, published 2010).
# Tested on: lipase (produced by Sigma)
# Assay: Determination of lipase inhibitory activity (olive oil substrate emulsion, copper reagent, absorbance at 480 nm)
# Assay type: biochemical
# Details: 37° C., 30 minutes
# Method: Ten micro litter of a solution containing the composition of the present invention obtained in Example 2 or 3 (diluted with a buffer to a final concentration of 0.01 or 0.1 mg/mL) or 10 μL of a solution containing the composition of the present invention obtained in Example 4 (at a final concentration of 1 mg/mL) was added to 80 μL, of a substrate emulsion (3.0 g of obtained by adding olive oil to 100 mL of a buffer described below, followed by sonication). The resultant was allowed to stand at 37° C. for 10 minutes. Ten micro litter of a lipase solution (diluted with a buffer to a concentration of lipase (produced by Sigma) of 1.0 mg/mL) was added thereto. The mixture was reacted with an enzyme reaction at 37° C. for 30 minutes. […] A coloring solution was added to the supernatant for determination of an absorbance at 480 nm. […] Results were calculated by Equation 1 described below with absorbance of the following: the composition of the present invention; a blank replaced the lipase solution with a buffer; and a control replaced a solution containing the composition of the present invention with a buffer. […]
# Inhibition rate (%)=[1−[absorbance of the composition of the present invention−blank absorbance]/[control absorbance−blank absorbance]]
substance,measurement,setting,value
purothionin [Positive control],Lipase inhibition rate,final concentration 0.1 mg/mL,76%
same,Lipase inhibition rate,final concentration 1 mg/mL,96%
